Measured values reported in patent US12643871B2, “Aryl formamide compound containing chiral sulfur oxide or salt thereof, preparation method, herbicidal composition and use thereof” (Qingdao Kingagroot Chemical Compound Co., Ltd., priority 2019, dated 2026).

Experiments:
Assay in all cases: Weeding effect in post-emergence stage
Format in all cases: in vivo
Conditions in all cases: 250 g/ha; 2 leaf stage; 15 days after application; fresh weight control rate
Abutilon theophrasti = tested on: Abutilon theophrasti
In short: (§1)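 Two-leaf-stage pot plants, spray-tower application at 500/250/125/60/30/15 g/ha with methyl oleate EC synergist; fresh weight control level (0–5) read at 15 days post-treatment, three replicates averaged.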

Amaranthus retroflexus = tested on: Amaranthus retroflexus
In short: as §1

Digitaria sanguinalis = tested on: Digitaria sanguinalis
In short: as §1

Echinochloa crusgali = tested on: Echinochloa crusgali
In short: as §1

Setaria viridis = tested on: Setaria viridis
In short: as §1

Row | Compound | weeding effect in post-emergence stage, activity level (growth control rate), Abutilon theophrasti (Abutilon theophrasti) | weeding effect in post-emergence stage, activity level (growth control rate), Amaranthus retroflexus (Amaranthus retroflexus) | weeding effect in post-emergence stage, activity level (growth control rate), Digitaria sanguinalis (Digitaria sanguinalis) | weeding effect in post-emergence stage, activity level (growth control rate), Echinochloa crusgali (Echinochloa crusgali) | weeding effect in post-emergence stage, activity level (growth control rate), Setaria viridis (Setaria viridis)
1 | CSc1c(C(=O)Nc2nnc(C)o2)ccc(C(F)(F)F)c1[S@+]([O-])CCCCl [Compound 563] | 5 (Level 5: growth control rate is above 85%) | 5 (Level 5: growth control rate is above 85%) | 5 (Level 5: growth control rate is above 85%) | 5 (Level 5: growth control rate is above 85%) | 5 (Level 5: growth control rate is above 85%)
2 | Cc1nnc(NC(=O)c2ccc(C(F)(F)F)c([S@+]([O-])C(F)(F)F)c2F)o1 [Compound 30] | 5 (Level 5: growth control rate is above 85%) | 5 (Level 5: growth control rate is above 85%) | 5 (Level 5: growth control rate is above 85%) | 5 (Level 5: growth control rate is above 85%) | 5 (Level 5: growth control rate is above 85%)
3 | Cc1nnc(NC(=O)c2ccc(C(F)(F)F)c([S@+]([O-])CC(C)(F)F)c2F)o1 [Compound 29] | 5 (Level 5: growth control rate is above 85%) | 5 (Level 5: growth control rate is above 85%) | 5 (Level 5: growth control rate is above 85%) | 5 (Level 5: growth control rate is above 85%) | 5 (Level 5: growth control rate is above 85%)
4 | CCCSc1c(C(=O)Nc2nnc(C)o2)ccc(C(F)(F)F)c1[S@+]([O-])CCC [Compound 570] | 5 (Level 5: growth control rate is above 85%) | 5 (Level 5: growth control rate is above 85%) | 5 (Level 5: growth control rate is above 85%) | 5 (Level 5: growth control rate is above 85%) | 5 (Level 5: growth control rate is above 85%)
5 | COc1c(C(=O)Nc2nnc(C)o2)ccc(C(F)(F)F)c1[S@@+]([O-])C(F)(C(F)(F)F)C(F)(F)F [Compound 330] | 5 (Level 5: growth control rate is above 85%) | 5 (Level 5: growth control rate is above 85%) | 5 (Level 5: growth control rate is above 85%) | 5 (Level 5: growth control rate is above 85%) | 5 (Level 5: growth control rate is above 85%)
6 | COc1c(C(=O)Nc2nnc(C)o2)ccc(C(F)(F)F)c1[S@+]([O-])C1COC1 [Compound 346] | 5 (Level 5: growth control rate is above 85%) | 5 (Level 5: growth control rate is above 85%) | 5 (Level 5: growth control rate is above 85%) | 5 (Level 5: growth control rate is above 85%) | 5 (Level 5: growth control rate is above 85%)
7 | COc1c(C(=O)Nc2nnc(C)o2)ccc(C(F)(F)F)c1[S@+]([O-])C(C)C [Compound 307] | 5 (Level 5: growth control rate is above 85%) | 5 (Level 5: growth control rate is above 85%) | 5 (Level 5: growth control rate is above 85%) | 5 (Level 5: growth control rate is above 85%) | 5 (Level 5: growth control rate is above 85%)
8 | COc1c(C(=O)Nc2nnc(C)o2)ccc(C(F)(F)F)c1[S@@+]([O-])C(F)(F)C(F)(F)F [Compound 327] | 5 (Level 5: growth control rate is above 85%) | 5 (Level 5: growth control rate is above 85%) | 5 (Level 5: growth control rate is above 85%) | 5 (Level 5: growth control rate is above 85%) | 5 (Level 5: growth control rate is above 85%)
9 | CSc1c(C(=O)Nc2nnc(C)o2)ccc(C(F)(F)F)c1[S@+]([O-])CCCC(F)(F)F [Compound 561] | 5 (Level 5: growth control rate is above 85%) | 5 (Level 5: growth control rate is above 85%) | 5 (Level 5: growth control rate is above 85%) | 5 (Level 5: growth control rate is above 85%) | 5 (Level 5: growth control rate is above 85%)
10 | COc1c(C(=O)Nc2nnc(C)o2)ccc(C(F)(F)F)c1[S@+]([O-])CCF [Compound 319] | 5 (Level 5: growth control rate is above 85%) | 5 (Level 5: growth control rate is above 85%) | 5 (Level 5: growth control rate is above 85%) | 5 (Level 5: growth control rate is above 85%) | 5 (Level 5: growth control rate is above 85%)
11 | C#CC[S@@+]([O-])c1c(C(F)(F)F)ccc(C(=O)Nc2nnc(C)o2)c1OC [Compound 314] | 5 (Level 5: growth control rate is above 85%) | 5 (Level 5: growth control rate is above 85%) | 5 (Level 5: growth control rate is above 85%) | 5 (Level 5: growth control rate is above 85%) | 5 (Level 5: growth control rate is above 85%)
12 | CCCCCC[S@@+]([O-])c1c(C(F)(F)F)ccc(C(=O)Nc2nnc(C)o2)c1F [Compound 12] | 5 (Level 5: growth control rate is above 85%) | 5 (Level 5: growth control rate is above 85%) | 3 (Level 3: growth control rate is greater than or equal to 40% and less than 60%) | 5 (Level 5: growth control rate is above 85%) | 3 (Level 3: growth control rate is greater than or equal to 40% and less than 60%)
13 | CC#CC[S@@+]([O-])c1c(C(F)(F)F)ccc(C(=O)Nc2nnc(C)o2)c1OC [Compound 316] | 5 (Level 5: growth control rate is above 85%) | 5 (Level 5: growth control rate is above 85%) | 5 (Level 5: growth control rate is above 85%) | 5 (Level 5: growth control rate is above 85%) | 5 (Level 5: growth control rate is above 85%)
14 | COc1c(C(=O)Nc2nnc(C)o2)ccc(C(F)(F)F)c1[S@+]([O-])CCCCl [Compound 333] | 5 (Level 5: growth control rate is above 85%) | 5 (Level 5: growth control rate is above 85%) | 5 (Level 5: growth control rate is above 85%) | 5 (Level 5: growth control rate is above 85%) | 5 (Level 5: growth control rate is above 85%)
15 | COc1c(C(=O)Nc2nnc(C)o2)ccc(C(F)(F)F)c1[S@+]([O-])CC(=O)O [Compound 341] | 5 (Level 5: growth control rate is above 85%) | 5 (Level 5: growth control rate is above 85%) | 5 (Level 5: growth control rate is above 85%) | 5 (Level 5: growth control rate is above 85%) | 5 (Level 5: growth control rate is above 85%)
16 | CSc1c(C(=O)Nc2nnc(C)o2)ccc(C(F)(F)F)c1[S@+]([O-])CCC(F)(F)F [Compound 560] | 5 (Level 5: growth control rate is above 85%) | 5 (Level 5: growth control rate is above 85%) | 5 (Level 5: growth control rate is above 85%) | 5 (Level 5: growth control rate is above 85%) | 5 (Level 5: growth control rate is above 85%)
